One compound from publication PMC8571951, “An activity‐based bioprobe differentiates a novel small molecule inhibitor from a LOXL2 antibody and provides renewed promise for anti‐fibrotic therapeutic strategies” (Clinical and Translational Medicine, 2021) can be followed below.

For this test, the target named is T1, LOXL2 (Rattus norvegicus, UniProt B5DF27).
T1 construct: from tissue; host or cells: rat plasma and lung
T1 sequence (B5DF27 26-776): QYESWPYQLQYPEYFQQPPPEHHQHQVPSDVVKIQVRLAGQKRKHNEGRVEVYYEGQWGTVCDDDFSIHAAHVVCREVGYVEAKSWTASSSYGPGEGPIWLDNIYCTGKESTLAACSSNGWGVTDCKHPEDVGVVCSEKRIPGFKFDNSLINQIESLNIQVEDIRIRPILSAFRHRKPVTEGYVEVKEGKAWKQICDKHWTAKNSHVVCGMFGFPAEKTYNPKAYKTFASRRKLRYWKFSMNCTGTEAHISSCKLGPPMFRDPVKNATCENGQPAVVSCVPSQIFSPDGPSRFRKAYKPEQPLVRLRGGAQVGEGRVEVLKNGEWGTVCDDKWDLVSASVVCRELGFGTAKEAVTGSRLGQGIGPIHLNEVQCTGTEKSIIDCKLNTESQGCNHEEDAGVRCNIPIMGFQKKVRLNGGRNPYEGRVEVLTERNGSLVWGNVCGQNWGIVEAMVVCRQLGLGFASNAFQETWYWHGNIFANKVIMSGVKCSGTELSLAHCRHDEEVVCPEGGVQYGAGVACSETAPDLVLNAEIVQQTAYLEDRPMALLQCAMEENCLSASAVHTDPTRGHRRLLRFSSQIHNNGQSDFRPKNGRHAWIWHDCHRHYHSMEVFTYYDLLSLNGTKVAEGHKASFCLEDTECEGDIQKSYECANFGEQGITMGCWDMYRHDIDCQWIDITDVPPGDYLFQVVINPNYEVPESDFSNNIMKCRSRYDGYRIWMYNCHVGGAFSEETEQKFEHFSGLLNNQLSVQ
As to the kind of experiment: Ex vivo LOXL2 activity after oral dosing in rats (PXS-5878/Simoa). The following applies: 30 mg/kg oral. As for the experimental part: FIGURE 2 Characteristics of PXS‐5338 and inhibition of lysyl oxidase‐like 2 (LOXL2) enzymatic activity in vitro and in vivo. (A) Chemical structure of PXS‐5338. […] (B) Tissue levels of PXS‐5338 measured 1 and 4 h after a single oral dose of 30 mg/kg in the rat. […] Average data from three different animals. (C) Concentration‐dependent inhibition of native […] LOX and rh LOXL1‐4 in a standard Amplex Red assay with 30 min pre‐incubation; n ≥3 independent experiments, standard error of mean (SEM). (D) PXS‐5338 inhibits rh LOXL2 in a time‐dependent manner, with increasing potency observed upon longer incubation with the enzyme. LOXL2 activity data devised from Amplex Red assay using putrescine as substrate and varying pre‐incubation times; n ≥3 independent experiments, standard error of mean (SEM). […] AB0023 and the corresponding isotype control antibody GS834298 were kindly provided by Gilead. Concentration‐response curves for the pan‐LOX inhibitor BAPN and LOXL2‐selective inhibitor PXS‐5338 are included for comparison. Data represented as mean ± SD with n = 5/concentration. […] To enable translation of preclinical data into the clinic, human plasma was incubated with different concentrations of PXS‐5338 for 30 min and the PXS‐5878/Simoa® platform used to measure the residual activity. […]

Regarding `CC(C)c1c(Cc2ccc(S(C)(=O)=O)nc2)c2ncccc2n1C/C(F)=C/CN` [PXS‐5338], the “Inhibition of LOXL2 activity in the lung (as in plasma)” value (4 h) is “almost complete inhibition”. In addition, the “Inhibition of LOXL2 activity remaining” value (24 h) is “no inhibition remained”.
